Here are results for 22 molecules from patent publication US7932255B2, “2-aminocarbonyl substituted piperazine or diaza-cyclic compounds as apoptosis protein inhibitors (lap) modulators” (Novartis AG, priority 2006, dated 2011).

A word on the IC50: it is the concentration at which inhibition is half-maximal.

The target of the first test is T1, XIAP (Homo sapiens, UniProt P98170).
T1 construct: GST
T1 sequence (P98170 248-358 limits assumed, species assumed): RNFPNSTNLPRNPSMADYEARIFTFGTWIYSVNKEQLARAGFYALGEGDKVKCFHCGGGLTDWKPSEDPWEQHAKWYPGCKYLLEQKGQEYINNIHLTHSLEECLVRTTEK
The experiment in a line: Disruption of the Smac peptide-(XIAP)BIR3 protein-protein interaction (Tables 2 and 3). The format is binding. As to conditions: Series A compounds, Table 2; read-out: XIAP IC50. As to the method: IC50 values for Series A compounds for XIAP. An assay capable of measuring disruption of the Smac peptide-(XIAP)BIR3 protein-protein interaction is established in the art as described in Example 2. In this assay IAP Inhibitor compounds compete with an immobilized Smac peptide for occupancy of the BIR3 binding pocket of XIAP. The rationale for this strategy results from the mutually exclusive nature of either Caspase 9 or Smac binding to the BIR3 pocket.
Assays are performed and IC50 values are calculated as follows: […]
IC50 values are calculated by logarithmic regression analysis of the percentage inhibition of each compound at 4 concentrations (usually 3- or 10-fold dilution series starting at 10 μM). In each experiment, the actual inhibition by reference compound is used for normalization of IC50 values to the basis of an average value of the reference inhibitor: Normalized IC50=measured IC50 average ref. IC50/measured ref. IC50
Activity determinations of compounds herein using the testing method described herein and as are well known in the art, are used with the following test compounds of formula (I). […] “Activity” as used herein is defined as having IC50 values for IAP target inhibition of less than 10 μM. Specifically, in the table:
IC50 values for Series B compounds are provided for XIAP. Assays are performed as described above using methods well known in the art.
Turning to `CN[C@@H](C)C(=O)N[C@H](C(=O)N1CCN(CCC(F)(F)F)C[C@H]1C(=O)NC1CCCc2ccccc21)C(C)C` (stereo partly drawn) [Compound 20, (S)-1-[(S)-3-Methyl-2-((S)-2-methylamino-propionylamino)-butyryl]-4-(3,3,3-trifluoro-propyl)-piperazine-2-carboxylic acid (1,2,3,4-tetrahydro-naphthalen-1-yl)-amide], the IC50 was less than 10 µM.

Regarding `CN[C@@H](C)C(=O)N[C@H](C(=O)N1CCN(Cc2ccc(OC)cc2)C[C@H]1C(=O)NC1CCCc2ccccc21)C(C)C` (stereo partly drawn) [Compound 6, (S)-4-(4-Methoxy-benzyl)-1-[(S)-3-methyl-2-((S)-2-methylamino-propionylamino)-butyryl]-piperazine-2-carboxylic acid (1,2,3,4-tetrahydro-naphthalen-1-yl)-amide], the IC50 is less than 10 µM.

As for `CN[C@@H](C)C(=O)N[C@H](C(=O)N1CCN(CCC(C)C)C[C@H]1C(=O)NC1CCCc2ccccc21)C(C)C` (stereo partly drawn) [Compound 24, (S)-4-(3-Methyl-butyl)-1-[(S)-3-methyl-2-((S)-2-methylamino-propionylamino)-butyryl]-piperazine-2-carboxylic acid (1,2,3,4-tetrahydro-naphthalen-1-yl)-amide], the IC50 was less than 10 µM.

As for `CN[C@@H](C)C(=O)N[C@H](C(=O)N1CCN(S(C)(=O)=O)C[C@H]1C(=O)NC1CCCc2ccccc21)C(C)C` (stereo partly drawn) [Compound 30, (S)-4-Methanesulfonyl-1-[(S)-3-methyl-2-((S)-2-methylamino-propionylamino)-butyryl]-piperazine-2-carboxylic acid (1,2,3,4-tetrahydro-naphthalen-1-yl)-amide], the IC50 is less than 10 µM.

Regarding `CN[C@@H](C)C(=O)N[C@H](C(=O)N1CCN(Cc2ccccc2)C[C@H]1C(=O)NC1CCCc2ccccc21)C1CCCCC1` (stereo partly drawn) [Compound 55, (S)-4-Benzyl-1-[(S)-2-cyclohexyl-2-((S)-2-methylamino-propionylamino)-acetyl]-piperazine-2-carboxylic acid (1,2,3,4-tetrahydro-naphthalen-1-yl)-amide], the IC50 is less than 10 µM.

As for `CN[C@@H](C)C(=O)N[C@H](C(=O)N1CCN(C(=O)Nc2ccccc2)C[C@H]1C(=O)NC1CCCc2ccccc21)C(C)C` (stereo partly drawn) [Compound 41, (S)-4-[(S)-3-Methyl-2-((S)-2-methylamino-propionylamino)-butyryl]-piperazine-1,3-dicarboxylic acid 1-phenylamide 3-[(1,2,3,4-tetrahydro-naphthalen-1-yl)-amide]], the 50% inhibitory concentration (IC50) was less than 10 µM.

In the case of `CN[C@@H](C)C(=O)N[C@H](C(=O)N1CCN(Cc2ccc(C(F)(F)F)cc2)C[C@H]1C(=O)NC1CCCc2ccccc21)C(C)C` (stereo partly drawn) [Compound 12, (S)-1-[(S)-3-Methyl-2-((S)-2-methylamino-propionylamino)-butyryl]-4-(4-trifluoromethyl-benzyl)-piperazine-2-carboxylic acid (1,2,3,4-tetrahydro-naphthalen-1-yl)-amide], the IC50 is less than 10 µM.

For the molecule `CN[C@@H](C)C(=O)N[C@H](C(=O)N1CCN(S(=O)(=O)c2ccc(F)cc2)C[C@H]1C(=O)NC1CCCc2ccccc21)C(C)C` (stereo partly drawn) [Compound 35, (S)-4-(4-Fluoro-benzenesulfonyl)-1-[(S)-3-methyl-2-((S)-2-methylamino-propionylamino)-butyryl]-piperazine-2-carboxylic acid (1,2,3,4-tetrahydro-naphthalen-1-yl)-amide], the 50% inhibitory concentration (IC50) is less than 10 µM.

As to `CN[C@@H](C)C(=O)N[C@H](C(=O)N1CCN(S(=O)(=O)CCC(F)(F)F)C[C@H]1C(=O)NC1CCCc2ccccc21)C(C)C` (stereo partly drawn) [Compound 26, (S)-1-[(S)-3-Methyl-2-((S)-2-methylamino-propionylamino)-butyryl]-4-(3,3,3-trifluoro-propane-1-sulfonyl)-piperazine-2-carboxylic acid (1,2,3,4-tetrahydro-naphthalen-1-yl)-amide], the half-inhibitory concentration (IC50) was less than 10 µM.

In the case of `CN[C@@H](C)C(=O)N[C@H](C(=O)N1CCN(CCOC)C[C@H]1C(=O)NC1CCCc2ccccc21)C(C)C` (stereo partly drawn) [Compound 38, (S)-4-(2-Methoxy-ethyl)-1-[(S)-3-methyl-2-((S)-2-methylamino-propionylamino)-butyryl]-piperazine-2-carboxylic acid (1,2,3,4-tetrahydro-naphthalen-1-yl)-amide], the concentration for half-maximal inhibition (IC50) is less than 10 µM.

Take `CN[C@@H](C)C(=O)N[C@H](C(=O)N1CCN(Cc2cccc3[nH]ccc23)C[C@H]1C(=O)NC1CCCc2ccccc21)C(C)C` (stereo partly drawn) [Compound 15, (S)-4-(1H-Indol-4-ylmethyl)-1-[(S)-3-methyl-2-((S)-2-methylamino-propionylamino)-butyryl]-piperazine-2-carboxylic acid (1,2,3,4-tetrahydro-naphthalen-1-yl)-amide]: the IC50 was less than 10 µM.

Regarding `CN[C@@H](C)C(=O)N[C@H](C(=O)N1CCN(C(=O)CCOC)C[C@H]1C(=O)NC1CCCc2ccccc21)C(C)C` (stereo partly drawn) [Compound 18, (S)-4-(3-Methoxy-propionyl)-1-[(S)-3-methyl-2-((S)-2-methylamino-propionylamino)-butyryl]-piperazine-2-carboxylic acid (1,2,3,4-tetrahydro-naphthalen-1-yl)-amide], the IC50 was less than 10 µM.

For the molecule `CCCN1CCN(C(=O)[C@@H](NC(=O)[C@H](C)NC)C(C)C)[C@H](C(=O)NC2CCCc3ccccc32)C1` (stereo partly drawn) [Compound 25, (S)-1-[(S)-3-Methyl-2-((S)-2-methylamino-propionylamino)-butyryl]-4-propyl-piperazine-2-carboxylic acid (1,2,3,4-tetrahydro-naphthalen-1-yl)-amide], the IC50 is less than 10 µM.

With `CN[C@@H](C)C(=O)N[C@H](C(=O)N1CCN(CCc2ccccc2)C[C@H]1C(=O)NC1CCCc2ccccc21)C(C)C` (stereo partly drawn) [Compound 46, (S)-1-[(S)-3-Methyl-2-((S)-2-methylamino-propionylamino)-butyryl]-4-phenethyl-piperazine-2-carboxylic acid (1,2,3,4-tetrahydro-naphthalen-1-yl)-amide], the IC50 was less than 10 µM.

In the case of `CN[C@@H](C)C(=O)N[C@H](C(=O)N1CCN(Cc2ccccc2OC)C[C@H]1C(=O)NC1CCCc2ccccc21)C(C)C` (stereo partly drawn) [Compound 37, (S)-4-(2-Methoxy-benzyl)-1-[(S)-3-methyl-2-((S)-2-methylamino-propionylamino)-butyryl]-piperazine-2-carboxylic acid (1,2,3,4-tetrahydro-naphthalen-1-yl)-amide], the concentration for half-maximal inhibition (IC50) was less than 10 µM.

Take `CN[C@@H](C)C(=O)N[C@H](C(=O)N1CCN(Cc2ccccc2)C[C@H]1C(=O)NC1CCCc2ccccc21)C(C)C` (stereo partly drawn) [Compound 14, (S)-4-Benzyl-1-[(S)-3-methyl-2-((S)-2-methylamino-propionylamino)-butyryl]-piperazine-2-carboxylic acid (1,2,3,4-tetrahydro-naphthalen-1-yl)-amide]: the concentration for half-maximal inhibition (IC50) was less than 10 µM.

Turning to `CN[C@@H](C)C(=O)N[C@H](C(=O)N1CCN(CC2CCCCC2)C[C@H]1C(=O)NC1CCCc2ccccc21)C(C)C` (stereo partly drawn) [Compound 19, (S)-4-Cyclohexylmethyl-1-[(S)-3-methyl-2-((S)-2-methylamino-propionylamino)-butyryl]-piperazine-2-carboxylic acid (1,2,3,4-tetrahydro-naphthalen-1-yl)-amide], the IC50 is less than 10 µM.

The test is the same for the next values; noted with them: Series B compounds, Table 3; read-out: XIXP IC50.
As to `CN[C@@H](C)C(=O)N[C@H](C(=O)N1CCN(Cc2ccccc2)C[C@H]1C(=O)NC1CCc2ccccc2C1)C(C)C` (stereo partly drawn) [Compound 68, (S)-4-Benzyl-1-[(S)-3-methyl-2-((S)-2-methylamino-propionylamino)-butyryl]-piperazine-2-carboxylic acid (1,2,3,4-tetrahydro-naphthalen-2-yl)-amide], the 50% inhibitory concentration (IC50) is less than 10 µM.

Turning to `CN[C@@H](C)C(=O)N[C@H](C(=O)N1CCN(Cc2ccccc2)C[C@H]1C(=O)NCCc1ccncc1)C(C)C` [Compound 69, (S)-4-Benzyl-1-[(S)-3-methyl-2-((S)-2-methylamino-propionylamino)-butyryl]-piperazine-2-carboxylic acid (2-pyridin-4-yl-ethyl)-amide], the IC50 was more than 10 µM.

`CN[C@@H](C)C(=O)N[C@H](C(=O)N1CCN(Cc2ccccc2)C[C@H]1C(=O)NCCC(C)C)C(C)C` [Compound 83, (S)-4-Benzyl-1-[(S)-3-methyl-2-((S)-2-methylamino-propionylamino)-butyryl]-piperazine-2-carboxylic acid (3-methyl-butyl)-amide]: the concentration for half-maximal inhibition (IC50) is more than 10 µM.

For `CCN(C(=O)[C@@H]1CN(Cc2ccccc2)CCN1C(=O)[C@@H](NC(=O)[C@H](C)NC)C(C)C)C1CCCc2ccccc21` (stereo partly drawn) [Compound 76, (S)-4-Benzyl-1-[(S)-3-methyl-2-((S)-2-methylamino-propionylamino)-butyrl]-piperazine-2-carboxylic acid ethyl-(1,2,3,4-tetrahydro-naphthalen-1-yl)-amide], the concentration for half-maximal inhibition (IC50) is less than 10 µM.

For `CN[C@@H](C)C(=O)N[C@H](C(=O)N1CCN(Cc2ccccc2)C[C@H]1C(=O)NCCc1ccccc1F)C(C)C` [Compound 67, (S)-4-Benzyl-1-[(S)-3-methyl-2-((S)-2-methylamino-propionylamino)-butyryl]-piperazine-2-carboxylic acid [2-(2-fluoro-phenyl)-ethyl]-amide], the IC50 was less than 10 µM.
